Experimental data as given in publication PMC9763021, “Comprehensive Assessment of Biomolecular Interactions of Morpholine-Based Mixed Ligand Cu(II) and Zn(II) Complexes of 2,2′-Bipyridine as Potential Anticancer and SARS-CoV-2 Agents: A Synergistic Experimental and Structure-Based Virtual Screening” (Bioinorganic Chemistry and Applications, 2022).

Columns and labels:
BSA = BSA (Bos taurus, UniProt P02769); assay: BSA fluorescence quenching (emission titration); format: binding, bovine; conditions: values in brackets; for KSV (BSA), SV method I: 350 nm; for P (BSA), ratio of fluorescence quantum efficiency: F/F0 vs 1/[BSA]; for Kq (BSA), SV method I: Kq=KSV/τ0; for ∆Gb° (BSA), SV method II: –RT lnKass
Procedure: The experiment was performed in the 200 to 800 nm region. This is supporting evidence for the complexes' manner of deoxyribonucleic acid binding. When DNA (200 μM) was present or absent, we carefully monitored the intensity variations between 610 nm and 510 nm during the initial emission and excitation of EB [6, 28, 37]. Similarly, emission titrations for BSA interaction with different concentrations between 2.5 μM and 25 μM for all substances were conducted in a Tris-HCl buffer solution (pH: 7.4) between the regions of 300 nm and 400 nm.
K SV is denoted as Stern–Volmer binding constant; Kass is represented as association binding constant; Kapp is represented as apparent binding constant, Kapp=KEB[EB]/[compound]=500/[compound], KEB = 10^7 M^−1 at the concentration of 50 μM EB; Gibb's free energy change ΔGb°=–RT lnKass; Kq is represented as bimolecular quenching rate constant/Stern–Volmer dynamic quenching rate constant (Kq=KSV/τ0), average life time of the biomolecular quenching in the absence of a quencher (τ0) = 10^−8 S; Gibb's free energy change ΔGb°=–RT lnKass (where R = […], T = 298 K); KLB is represented as Lineweaver–Burk (LWB) binding constant; KSA is represented as Scatchard association binding constant; Kapp is denoted as apparent binding constant; n is the number of binding sites; P is a ratio of fluorescence quantum efficiency of DNA bound and free complex (P=ɸb/ɸf), which is obtained as intercept from plot F/F0 vs. 1/[DNA], Error limit is ± 2.5% (P < 0.025).(12) Fcorr=Fobs×e^Aex×dex+Aem×dem/2=Fobs×e^Aex+Aem/2, where Fcorr and Fobs are represented as the IFE-corrected fluorescence and observed (uncorrected) emission intensities, respectively. dex and dem are denoted as the cuvette path lengths in the excitation and emission directions, respectively. Aex and Aem are represented as the change in absorbance at the excitation and fluorescence wavelengths, respectively.(13) F0 /F=1+KSVQ=1+Kq τ0, where [Q] is represented as the sample concentration, the emission intensities F0 and F of DNA/BSA in the absence and presence of the quencher (sample), respectively.(14) F0 /F−1=F0−F/F=KSVQlogF0−F/F=logKass+n logQ, (15) KEBEB=Kappcompound, (16) 1/F0−F=1/F0 KLBQ+1/F0 , (17) γ/CF =KSCn−γ, where γ = [(F0 − F)/F0], and CF is denoted as the concentration of sample alone.
Additionally, the intensity of bovine serum albumin was monitored at 350 nm (λex = 278 nm) during fluorescence titration. When increasing the sample concentrations, the BSA intensity diminishes dramatically owing to static quenching in the ground state. It is noted that the fluorophores of BSA are not clearly exposed to a shift in polarity. […] Additionally, the Stern–Volmer equations (12)-(13) were employed to analyze the data (Figure S27 and Table 4). […] They are also much exceeded compared to the collision quenching constant value (2.0 × 10^10 mol^−1·s^−1). Therefore, it is assumed that the static quenching process was brought on by adduct construction between the compounds and bovine serum albumin rather than a dynamic collision. However, fluorescence spectroscopy is generally plagued by the inner filter effect (IFE), which disturbs the spectral analysis in particular. The energizing ray is attenuated due to the highly concentrated solution sample. As a result, strong fluorescence is only seen on surfaces facing the excitation beam. The fluorescence intensity is reduced as a result of an inner filter effect generated by some chemicals' absorption of the excitation or emission wavelength in the UV province. The observed values of the absorption wavelength of ligand (HL) and mixed ligand complexes (1a-2a) in the range of 335–337 nm, the bovine serum albumin excitation wavelength of 278 nm, and emission wavelength of 350 nm were used to assess the effect of IFE in this approach. Equation (12) is employed to solve IFE in this instance as well (Table 4). […]

Shigella flexneri = assay: Agar disc diffusion, strain E; format: cell-based; design: (inhibition %): concentration or dose not given beside the values; conditions: for diameter of the clear zone inhibition: control = 6 mm
Procedure: In-vitro antimicrobial properties were evaluated for all samples by the agar disc diffusion method towards different fungal and bacterial strains. Additionally, the reported inhibition zone values were comparatively analyzed with the standard antifungal drugs ketoconazole and amphotericin B as well as the standard antibiotic medications streptomycin and amikacin.
The current research has a curious focus on the in vitro antimicrobial properties of biological systems because these studies are crucial for developing effective antibacterial and antifungal medications. […] It can also be spelled out based on the chelation theory proposed by Overtone and Tweedy. Chelation theory points out that the partial exchanging of the positive charge of the metal center with donor moieties, and overlap of the ligand orbitals will reduce the greater degree of the metal ion's polarity, which ultimately rises the delocalization of π and d electrons over the full chelated ring system. By raising the size of the metal ion due to the retarding of polarization, chelation may also enhance the complexes' lipophilic characteristics, which further stimulate the lipid membrane permeability and break down the bacteria' enzymes responsible for cell wall formation, therefore slowing down the regular cell processes. By preventing the production of cell walls/proteins/DNA, including by obstructing folate metabolism and the cytoplasmic membrane, antimicrobial drugs frequently either fully eliminate microbes or only prevent their cell growth. Additionally, the samples' mode of action may be employed in disrupting the cell's respiration process by forming an H-bond during the morpholine-fused iminic group coordinated with the active metal center of its components, inhibiting proliferation of the cell. […] The difference in the antimicrobial efficacy of some of the compounds towards various microorganisms influences on the impermeability of the cells of the germs or the diversity of ribosomes of the microbes. The % of the inhibition of all substances is estimated from (45) (Table 9).
(A, B, C, D, and E are represented as gram negative bacteria species Escherichia coli, Salmonella enteric serovar typhi, Salmonella enteric serovar typhi, Pseudomonas aeruginosa, and Shigella flexneri, respectively. F & G are denoted as gram positive bacteria species Staphylococcus aureus and Bacillus cereus. H, I, and J are represented as fungal strains Aspergillus niger, Candida albicans, and Mucor indicus. Standard drugs for bacterial strains: Amikacin & Streptomycin Standard drugs for fungal strains: Ketoconazole and Amphotericin B. [Control (DMSO) = 6 mm].(44) Inhibition %=T–C/T×100, where T and C are represented as the diameter of microbial growth of the sample plates and the control plate (6 mm), respectively. Error limits ±2.5–5.0% (P ≤ 0.05).

SMILES | Kass (BSA), SV method II (BSA) [M⁻¹] | n (BSA), SV method II (BSA) | KSV (BSA), SV method I (BSA) [M⁻¹] | P (BSA), ratio of fluorescence quantum efficiency (BSA) | Kq (BSA), SV method I (BSA) [M⁻¹ s⁻¹] | ∆Gb° (BSA), SV method II (BSA) [kJM^−1] | (inhibition %) (Shigella flexneri) [%] | diameter of the clear zone inhibition (Shigella flexneri) [mm]
Oc1ccccc1N=Cc1ccc(N2CCOCC2)cc1 [(HL), 2-(4-morpholinobenzylideneamino)phenol] | 10620 | 0.926 | 26390 | 0.464 | 2.639e+12 | −23.0 | 57 | 14
[Cu+2].[O-]c1ccccc1N=Cc1ccc(N2CCOCC2)cc1.[O-]c1ccccc1N=Cc1ccc(N2CCOCC2)cc1.c1ccc(-c2ccccn2)nc1 [(1a), [Cu(L)2(bpy)]] | 87340 | 1.059 | 86910 | 0.252 | 8.691e+12 | −28.2 | 45 | 11
[O-]c1ccccc1N=Cc1ccc(N2CCOCC2)cc1.[O-]c1ccccc1N=Cc1ccc(N2CCOCC2)cc1.[Zn+2].c1ccc(-c2ccccn2)nc1 [(2a), [Zn(L)2(bpy)]] | 52910 | 1.041 | 48050 | 0.348 | 4.805e+12 | −26.9 | 45 | 11
